Values after ≈ are worked out from the molar mass of the structure shown. Bridge positions count the residues as written; N and C are the ends. Square brackets hold non-standard residues; d marks the D form. Peptide text beside a SMILES is read from it. I, II: the chains in the order shown. * marks the point of attachment. Quinaldoyl(3-OH) = O=C(c1nc2ccccc2cc1O)*; NMeC = CN[C@@H](CS)C(=O)O
How the values were obtained:
[1] = test system: duplex deoxyoligonucleotides, 5′-GCXXGC-3′ where XX=TA, AT, GC, CG; test: fluorescence quenching titration with duplex deoxyoligonucleotides; conditions: high-affinity binding, listed as 1
From the text: Consequently, the binding of 1 was examined with a set of four duplex deoxyoligonucleotides, 5′-GCXXGC-3′ where XX=TA, AT, GC, CG, incorporating the high affinity intercalation sites of the related bisintercalatiors echinomycin (5′-PuCGPy) (Corbaz, R., et al., Helv. Chim. Acta 1957, 40, 199; Keller-Schierlein, W., et al., Helv. Chim. Acta 1957, 40, 205; Keller-Schierlein, W., et al., Helv. Chim. Acta 1959, 42, 305; Martin, D. G., et al., J. Antibiot. 1975, 28, 332; Dell, A., et al., J. Am. Chem. Soc. 1975, 97, 2497), sandramycin (5′-CATG) (Boger, D. L., et al., Bioorg. Med. Chem. 1999, 7, 315; Boger, D. L., et al., Bioorg. Med. Chem. 1998, 6, 85), and the luzopeptins (5′-CATG) (Isolation: Konishi, M., et al., J. Antibiot. 1981, 34, 148; Structure and stereochemistry: Arnold, E., et al., J. Am. Chem. Soc. 1981, 103, 1243. Total synthesis (luzopeptins A-C): Boger, D. L., et al., J. Am. Chem. Soc. 1999, 121, 1098; Boger, D. L., et al., J. Am. Chem. Soc. […] The excitation and emission spectra for thiocoraline and BE-22179 were recorded in aqueous buffer (Tris-HCl, pH 7.4, 75 mM NaCl). To minimize fluorescence decrease due to dissolution or photobleaching, the solutions were stirred in 4-mL cuvettes in the dark with the minimum exposure to the excitation beam necessary to obtain a reading. […]

[2] = molecular target: HIV-1 reverse transcriptase (Human immunodeficiency virus type 1 group M subtype B, UniProt P03366); test: inhibition of HIV-1 reverse transcriptase; type: biochemical
[3] = solubility in aqueous buffer; type: physicochemical; conditions: aqueous Tris-HCl buffer; Tris-HCl pH 7.4, 75 mM NaCl; read-out: agent concentrations where the compounds are soluble
DNA topoisomerase II = conditions: cited from earlier work
DNA polymerase α = molecular target: T1, DNA polymerase α (Homo sapiens, UniProt P09884); conditions: at concentrations that inhibit cell cycle progression and clonogenicity; cited from earlier work
T1 sequence (P09884 1-1462): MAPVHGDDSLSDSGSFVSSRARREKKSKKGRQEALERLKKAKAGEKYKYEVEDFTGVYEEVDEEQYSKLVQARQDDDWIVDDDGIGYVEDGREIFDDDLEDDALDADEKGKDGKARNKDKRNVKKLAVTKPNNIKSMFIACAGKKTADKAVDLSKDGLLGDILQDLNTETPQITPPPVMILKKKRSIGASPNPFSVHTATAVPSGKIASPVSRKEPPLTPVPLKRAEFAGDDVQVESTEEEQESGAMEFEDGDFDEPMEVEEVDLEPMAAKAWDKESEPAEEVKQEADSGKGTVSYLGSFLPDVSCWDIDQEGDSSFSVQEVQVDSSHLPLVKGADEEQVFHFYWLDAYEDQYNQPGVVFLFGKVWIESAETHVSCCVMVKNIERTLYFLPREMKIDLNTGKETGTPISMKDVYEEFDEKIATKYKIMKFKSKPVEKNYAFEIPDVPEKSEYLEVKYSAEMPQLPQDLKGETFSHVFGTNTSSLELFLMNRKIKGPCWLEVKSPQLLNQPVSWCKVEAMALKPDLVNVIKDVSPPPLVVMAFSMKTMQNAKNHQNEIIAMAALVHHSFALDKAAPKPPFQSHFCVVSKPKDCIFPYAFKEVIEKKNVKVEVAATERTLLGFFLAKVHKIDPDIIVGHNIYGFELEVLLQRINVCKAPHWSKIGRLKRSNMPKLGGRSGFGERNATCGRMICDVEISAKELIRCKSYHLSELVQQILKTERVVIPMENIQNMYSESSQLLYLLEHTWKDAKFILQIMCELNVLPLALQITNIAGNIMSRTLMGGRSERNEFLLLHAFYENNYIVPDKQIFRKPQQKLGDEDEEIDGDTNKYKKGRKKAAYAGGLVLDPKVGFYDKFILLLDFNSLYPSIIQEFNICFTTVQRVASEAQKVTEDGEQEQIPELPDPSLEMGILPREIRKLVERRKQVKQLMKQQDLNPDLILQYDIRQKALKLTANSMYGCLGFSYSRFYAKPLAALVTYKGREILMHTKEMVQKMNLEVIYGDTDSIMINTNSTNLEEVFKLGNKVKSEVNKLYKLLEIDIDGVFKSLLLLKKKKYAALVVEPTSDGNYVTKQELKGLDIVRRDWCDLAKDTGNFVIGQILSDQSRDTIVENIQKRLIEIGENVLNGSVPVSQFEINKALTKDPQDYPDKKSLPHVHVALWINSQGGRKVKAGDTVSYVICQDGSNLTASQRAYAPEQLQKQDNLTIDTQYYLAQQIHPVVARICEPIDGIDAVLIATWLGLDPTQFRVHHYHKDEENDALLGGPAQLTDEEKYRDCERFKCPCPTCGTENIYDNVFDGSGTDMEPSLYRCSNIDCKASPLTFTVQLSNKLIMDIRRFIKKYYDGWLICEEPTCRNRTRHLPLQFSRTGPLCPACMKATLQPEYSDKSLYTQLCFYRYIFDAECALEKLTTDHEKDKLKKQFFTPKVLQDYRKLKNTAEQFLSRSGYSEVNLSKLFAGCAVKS

For `CSC[C@H]1C(=O)SC[C@@H](NC(=O)c2nc3ccccc3cc2O)C(=O)NCC(=O)N(C)[C@H]2CSSC[C@@H](C(=O)N1C)N(C)C(=O)CNC(=O)[C@H](NC(=O)c1nc3ccccc3cc1O)CSC(=O)[C@H](CSC)N(C)C2=O` [Thiocoraline] (I: {Quinaldoyl(3-OH)}-[dC]G[NMeC][NMeC](Me) / II: {Quinaldoyl(3-OH)}-[dC]G[NMeC][NMeC](Me); thioester I:1-II:C, I:C-II:1; disulfide I:3-II:3), the “binding constants for the four deoxyoligonucleotides” value [1] was 3-7×10^6 M^−1, the “inhibition of HIV-1 reverse transcriptase (in words)” value [2] was “weak inhibitor” and the solubility [3] was 1 to 10 µM (≈ 1.16 to 11.6 µg/mL). The “inhibition of DNA topoisomerase II” value (DNA topoisomerase II) was “does not inhibit” and the “inhibition of DNA polymerase α” value (DNA polymerase α) was “does inhibit”.

From US20040072738A1, “Analogues of thiocoraline and be-22179” (priority 2000, published 2004)
